Bridge positions count the residues as written; N and C are the ends. Square brackets hold non-standard residues; d marks the D form. Ends that are not written are not given here. cellulose = not defined here; βAla = NCCC(=O)O
How the values were obtained:
Format in all cases: binding
Design in all cases: key: No binding of immunoglobulin for the defined peptide variant, detection negative: 0; Binding of immunoglobulin for the defined peptide variant, detection positive: +
[1] = system: serum albumin; experiment: Cellulose-immobilized 13-mer peptide variants incubated with serum albumin (negative control), anti-human IgG-AP detection; conditions: blocking buffer without addition, 3 h room temperature
Procedure, shortened: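 Spot membrane, (βA)(βA) spacer; T-TBS pH 8.0 wash, block 5% saccharose/4% BSA. 3 h RT with IgG-Fc 1 μg/ml, serum 1:10,000, or block buffer only (specificity control). 3× wash, AP-anti-human IgG 1.2 μg/ml, NBT/BCIP in pH 9.5 buffer.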

[2] = system: human IgG-Fc; experiment: Cellulose-immobilized 13-mer peptide variants incubated with human IgG-Fc, anti-human IgG-AP detection; conditions: IgG-Fc 1 μg/ml in blocking buffer, 3 h room temperature
Procedure, shortened: (§1)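 Membrane-bound peptides, spaced by two β-alanines, are probed with 1 μg/ml IgG-Fc or 1:10,000 serum for 3 h at room temperature; blocking buffer alone acts as control. Detection uses anti-human IgG-AP (1.2 μg/ml) and NBT/BCIP.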

[3] = system: immunoglobulins in human plasma; experiment: Cellulose-immobilized 13-mer peptide variants incubated with human plasma, anti-human IgG-AP detection; conditions: human plasma as sample, diluted 1:10,000 in blocking buffer, 3 h room temperature
Procedure, shortened: as §1

Result for incubation with serum albumin (immunoglobulin binding detection) [1]	Result for incubation with human IgG-Fc (immunoglobulin binding detection) [2]	Result for incubation with human plasma (immunoglobulin binding detection) [3]	Substance
0	0	0	02D: cellulose-bound 13-mer variant DDAWHLGELVWCT-(βA)(βA) (DDAWHLGELVWCT[βAla][βAla]; not fully specified; printed as DDAWHLGELVWCT-(βA)(βA); also: cellulose-bound)
0	0	0	09T: cellulose-bound 13-mer variant DCAWHLGETVWCT-(βA)(βA) (DCAWHLGETVWCT-{βAla-βAla-cellulose}; disulfide 2-12 (inferred); reading uncertain; also: printed as DCAWHLGETVWCT-(βA)(βA))
0	0	0	10Y: cellulose-bound 13-mer variant DCAWHLGELYWCT-(βA)(βA) (DCAWHLGELYWCT-{βAla-βAla-cellulose}; disulfide 2-12 (inferred); reading uncertain; also: printed as DCAWHLGELYWCT-(βA)(βA))
0	0	0	02N: cellulose-bound 13-mer variant DNAWHLGELVWCT-(βA)(βA) (DNAWHLGELVWCT[βAla][βAla]; not fully specified; printed as DNAWHLGELVWCT-(βA)(βA); also: cellulose-bound)
0	0	0	07Q: cellulose-bound 13-mer variant DCAWHLQELVWCT-(βA)(βA) (DCAWHLQELVWCT-{βAla-βAla-cellulose}; disulfide 2-12 (inferred); not fully specified (N-terminus); printed as DCAWHLQELVWCT-(βA)(βA); reading uncertain)
0	0	0	02A: cellulose-bound 13-mer variant DAAWHLGELVWCT-(βA)(βA) (DAAWHLGELVWCT[βAla][βAla]; not fully specified; printed as DAAWHLGELVWCT-(βA)(βA); also: cellulose-bound)
0	0	0	07T: cellulose-bound 13-mer variant DCAWHLTELVWCT-(βA)(βA) (DCAWHLTELVWCT-{βAla-βAla-cellulose}; disulfide 2-12 (inferred); not fully specified (N-terminus); printed as DCAWHLTELVWCT-(βA)(βA); reading uncertain)
0	+	0	01K: cellulose-bound 13-mer variant KCAWHLGELVWCT-(βA)(βA) (KCAWHLGELVWCT-{βAla-βAla-cellulose}; disulfide 2-12 (inferred); reading uncertain; also: printed as KCAWHLGELVWCT-(βA)(βA))
0	0	0	04A: cellulose-bound 13-mer variant DCAAHLGELVWCT-(βA)(βA) (DCAAHLGELVWCT-{βAla-βAla-cellulose}; disulfide 2-12 (inferred); reading uncertain; also: printed as DCAAHLGELVWCT-(βA)(βA))
0	+	+	04K: cellulose-bound 13-mer variant DCAKHLGELVWCT-(βA)(βA) (DCAKHLGELVWCT[βAla][βAla]; disulfide 2-12 (inferred); also: cellulose-bound)
0	0	0	04C: cellulose-bound 13-mer variant DCACHLGELVWCT-(βA)(βA) (DCACHLGELVWCT-{βAla-βAla-cellulose}; disulfide (positions not given here); not fully specified (bridges); printed as DCACHLGELVWCT-(βA)(βA); reading uncertain)
0	0	0	11N: cellulose-bound 13-mer variant DCAWHLGELVNCT-(βA)(βA)
0	0	0	10L: cellulose-bound 13-mer variant DCAWHLGELLWCT-(βA)(βA) (DCAWHLGELLWCT-{βAla-βAla-cellulose}; disulfide 2-12 (inferred); reading uncertain; also: printed as DCAWHLGELLWCT-(βA)(βA))
0	0	0	05N: cellulose-bound 13-mer variant DCAWNLGELVWCT-(βA)(βA) (disulfide 2-12 (inferred); not fully specified (N-terminus, C-terminus); printed as DCAWNLGELVWCT-(βA)(βA); also: cellulose-bound)
0	0	0	01F: cellulose-bound 13-mer variant FCAWHLGELVWCT-(βA)(βA) (FCAWHLGELVWCT-{βAla-βAla-cellulose}; disulfide 2-12 (inferred); reading uncertain; also: printed as FCAWHLGELVWCT-(βA)(βA))
0	0	0	09I: cellulose-bound 13-mer variant DCAWHLGEIVWCT-(βA)(βA) (DCAWHLGEIVWCT-{βAla-βAla-cellulose}; disulfide 2-12 (inferred); reading uncertain; also: printed as DCAWHLGEIVWCT-(βA)(βA))
0	0	0	03F: cellulose-bound 13-mer variant DCFWHLGELVWCT-(βA)(βA) (DCFWHLGELVWCT-{βAla-βAla-cellulose}; disulfide 2-12 (inferred); reading uncertain; also: printed as DCFWHLGELVWCT-(βA)(βA))
